This note sets out measurements from patent publication EP2906547B2, “COSMETIC COMPOSITIONS CONTAINING AT LEAST ONE HYDROTROPE AND AT LEAST ONE ACTIVE COMPOUND” (priority 2012, dated 2014).

The nature of data set [1]: Solubility of adenosine in water with and without hydrotropes.
Data set [2] in a line: Solubility of baicalin in water as a function of pH. The conditions noted are these: for solubility: water. The format is physicochemical.
Another data set is described as follows: physchem. The protocol: Another aspect of the text discloses a method for preparing the aqueous compositions comprising including in the composition at least one phenolic compound and at least one hydrotrope in an amount sufficient to solubilize the phenolic compound, such as a polyphenol, in water. A hydrotrope solution is prepared by completely dissolving one or more hydrotropic agents into water. At least one phenolic compound is then added in and mixed using a stirring bar or any other mixer. […] Everything is prepared at room temperature to keep the stability of the phenolic compound(s).
Everything is prepared at room temperature to keep the stability of the phenolic compounds.

A short description of data set [3]: Stability of solutions on dilution in water.
Where [4] appears, read: 5% nicotinamide and 5% caffeine, room temperature.
The mark [5] stands for this setting: 5% nicotinamide, 5% caffeine, water.

Converted amounts (≈) assume the structure as drawn. Read-outs that look alike come from different tables or passages of the source.

On to `Nc1ncnc2c1ncn2[C@@H]1O[C@H](CO)[C@@H](O)[C@H]1O` [Adenosine], for which, in data set [1] (setting [4]), the “Solubility in water with hydrotropes” value is listed as >3 %(w/w). In data set [1] (water), this compound returned a solubility (thermodynamic) below 5000 µg/mL.
For the compound `O=C(O)[C@H]1O[C@@H](Oc2cc3oc(-c4ccccc4)cc(=O)c3c(O)c2O)[C@H](O)[C@@H](O)[C@@H]1O` [Baicalin], the “pH at which degradation happens” value in data set [2] (in water) is reported as above 5. The solubility is 16 µg/mL (≈ 35.8 µM) in data set [2] (pH 3, water, in water, pH 3, read-out: Solubility); 21 µg/mL (≈ 47 µM) in data set [2] (pH 3.5, water, in water, pH 3.5, read-out: Solubility); 40 µg/mL (≈ 89.6 µM) in data set [2] (pH 4, water, in water, pH 4, read-out: Solubility); 84 µg/mL (≈ 188 µM) in data set [2] (pH 4.5, water, in water, pH 4.5, read-out: Solubility); below 100 µg/mL in data set [2] (pH 4.5, water, without hydrotrope, natural pH -4.5, read-out: solubility in water); 350 µg/mL (≈ 784 µM) in data set [2] (pH 5, water, in water, pH 5, read-out: Solubility). Besides, in “physchem” (2% caffeine in water), the water solubility was found to be 0.11%. Further, the “Solubility in water with hydrotropes” value in the data set “physchem” (setting [5]) is recorded as >1 % (w/w). For the same compound, the “amount solubilized in water” value in “physchem” (setting [5]) was “approximately 1%”. Besides, the thermodynamic solubility in the data set “physchem” (water) was below 100 µg/mL. The “stability of dilution in water” value in data set [3] (hydrotrope solution diluted in water) is on record as “still stable”; in data set [3] (solution in organic solvent (e.g. PEG-4) diluted in water, crystallization or precipitation occurs), “not stable any more”.
With `O=c1oc2c(O)c(O)cc3c(=O)oc4c(O)c(O)cc1c4c23` [Ellagic acid], the “Solubility in water with hydrotropes” value in the data set “physchem” (setting [4]) is >0.01 % (w/w). Further, the thermodynamic solubility in “physchem” (water) was below 10 µg/mL.
Regarding `COc1ccc([C@@H]2CC(=O)c3c(O)cc(O[C@@H]4O[C@H](CO)[C@@H](O)[C@H](O)[C@H]4O[C@@H]4O[C@@H](C)[C@H](O)[C@@H](O)[C@H]4O)cc3O2)cc1O` [Neohesperidin], the “Solubility in water without hydrotropes” value in the data set “physchem” (water) is <0.05 % (w/w).
Take `Oc1ccc(C=Cc2cc(O)cc(O)c2)cc1` [Resveratrol]: the “Solubility in water with hydrotropes” value in the data set “physchem” (setting [5]) is >0.75 % (w/w). In addition, in “physchem” (water), the thermodynamic solubility was below 50 µg/mL.
Regarding `O=C1c2c(O)cc(O)cc2O[C@H](c2ccc(O)c(O)c2)[C@H]1O` [Taxifolin], the “Solubility in water with hydrotropes” value in the data set “physchem” (setting [4]) is on record as >1 % (w/w). The compound also gave a thermodynamic solubility in “physchem” (water) below 1000 µg/mL.
